Data reported in patent publication US20190022104A1 (priority 2016, published 2019).
“And” between values parts separate entries of the source, which are not always exact repeats. Identical values can stand only once. “Also recorded” adds a separate entry of the source. Like-named read-outs stand apart in the source and are kept apart here.

What was measured:
[1] = test system: mice with sepsis shock induced by 75 mg/kg endotoxin; experiment: Survival of mice with sepsis shock induced by 75 mg/kg endotoxin; format: in vivo; conditions: for number of mice survived / number of mice died: 10 mice per group; for number of mice survived: endotoxin group 4 survived; for number of mice died: endotoxin group 6 died; for survival rate of mice: sepsis shock induced by 75 mg/kg endotoxin i.p., 10 animals per group, endotoxin group 40%, normal control 100%
Experimental: (§1) The model of septic shock in mice was induced by intraperitoneal injection of a toxic dose of 75 mg/kg endotoxin. […] The model of sepsis shock in mice was induced by intraperitoneal injection of a total lethal dose of 150 mg/kg endotoxin. […] Mice injected intraperitoneally with placebo in place of endotoxin were used as a normal control group.
The model of sepsis shock in mice was induced with 75 mg/kg endotoxin.

[2] = test system: TNF-α in serum; experiment: Serum TNF-α concentration in rats with endotoxin-induced sepsis shock; format: in vivo
[3] = test system: liver tissue of rats with sepsis shock; experiment: Pathological change in liver tissue under microscope, rats with sepsis shock; format: in vivo; conditions: compared with the endotoxin group
Experimental: as §1

[4] = test system: mice with sepsis shock induced by 150 mg/kg endotoxin; experiment: Survival time of mice with sepsis shock induced by 150 mg/kg endotoxin; format: in vivo; conditions: for average survival time of mice: 150 mg/kg endotoxin i.p. (total lethal dose), endotoxin group 29.15±6.84 hours, p<0.05 vs endotoxin group
Experimental: as §1
The septic shock in mice was induced with 150 mg/kg endotoxin and the survival curves were plotted according to the survival time of mice in each group.

[5] = test system: lung tissue of rats with sepsis shock; experiment: Pathological change in lung tissue under microscope, rats with sepsis shock; format: in vivo; conditions: compared with the endotoxin group
[6] = cited from earlier work
[7] = test system: gastric and duodenal ulcers; conditions: patients; cited from earlier work
[8] = test system: mouse sepsis model (LPS 75 mg/kg); experiment: Effects of different doses of pirenzepine in LPS mouse sepsis model; conditions: 0.3-1.2 mg/kg i.p.; no statistically significant difference between dose groups
Experimental: After 30 minutes, LPS (75 mg/kg) was injected intraperitoneally to produce a mouse sepsis model.

[9] = cited from earlier work; remark: listed apart in the source
[10] = 0 min after sepsis shock was reached, endotoxin group 641.05±24.75, normal control 159.36±50.40
[11] = 30 min after sepsis shock was reached, endotoxin group 677.95±47.05, normal control 223.41±27.42
[12] = 90 min after sepsis shock was reached, endotoxin group 716.11±24.41, normal control 166.86±28.80

| SMILES | number of mice survived ([1]; 75 mg/kg endotoxin) | number of mice died ([1]; 75 mg/kg endotoxin) | survival rate of mice [1] [%] | concentration of TNF-α in serum of rats [2, 10] | concentration of TNF-α in serum of rats [2, 11] | concentration of TNF-α in serum of rats [2, 12] | pathological changes of the liver tissue under microscope [3] | average survival time of mice [4] [h] | pathological changes of the lung tissue under microscope [5] | other results |
| --- | --- | --- | --- | --- | --- | --- | --- | --- | --- | --- |
| CCN(CC)CC1CCCCN1CC(=O)N1c2ccccc2C(=O)Nc2cccnc21 (centres unmarked) [AF-DX116, 11-[[2-[(Diethylamino)methyl]-1-piperidinyl]acetyl]-5,11-dihydro-6H-pyrido[2,3-b][1,4]benzodi azepin-6-one] | 1 | 9 | 10 | 706.19 ± 6.00 pg/mL | 757.48 ± 51.40 pg/mL | 857.21 ± 74.14 pg/mL | cell necrosis was more serious; also recorded: cell necrosis was more severe | 16.02 ± 2.06 | the destruction of the tissue was aggravated; also recorded: pathological changes were aggravated | concentration of TNF-α in serum of rats ([2]; 150 min after sepsis shock was reached, endotoxin group 737.00±16.38, normal control 161.47±9.75): 932.22 ± 17.25 pg/mL |
| CN1[C@@H]2CC[C@H]1C[C@@H](OC(=O)C(CO)c1ccccc1)C2 (some centres unmarked) [atropine] | 7 | – | 70 | – | – | 598.54±48.85 pg/mL and 598.54 ± 48.85^f pg/mL | the lesions were all relieved; also recorded: the edema and necrosis of hepatocytes were all reduced | 37.15 ± 9.27 | congestion, exudation, and necrosis were significantly reduced; also recorded: the exudation was significantly reduced, and alveolar septum widening was reduced | – |
| CN1CCN(CC(=O)N2c3ccccc3C(=O)Nc3cccnc32)CC1 [pirenzepine, 11-[(4-methylpiperazin-1-yl)acetyl]-5,11-dihydro-6H-pyrido[2,3-b][1,4]benzodiazepin-6-one] | 8 | 2 | 80 | 378.12±17.87 pg/mL and 378.12 ± 17.87^a pg/mL | 418.19±22.75 pg/mL and 418.19 ± 22.75^c pg/mL | 446.35±33.04 pg/mL and 446.35 ± 33.04^e pg/mL | the lesions were all relieved; also recorded: the lesions were reduced | 44.6 ± 11.96 | congestion, exudation, and necrosis were significantly reduced; also recorded: the exudation was significantly reduced, and edema and inflammation in the alveolar septum were reduced | solubility ([6]; in anhydrous ethanol): very easily soluble; solubility ([6]; in formic acid): soluble; solubility ([6]; in methanol): insoluble; solubility ([6]; in water): soluble; healing rate of the ulcer [7]: 70%-94%; effect on mortality of mice with sepsis ([1]; 75 mg/kg endotoxin, FIG. 1): significantly reduced the mortality; effect of low-dose pretreatment on survival time of mice with sepsis [8]: can prolong the survival time; serum TNF-α concentrations compared with the endotoxin-untreated group ([2]; rats, at 0, 30, 90 and 150 minutes, p<0.05): significantly lower; plasma protein binding rate ([9]; in vivo): about 10%; plasma t½ ([9]; in vivo): 10 to 12 h; tmax ([9]; oral): 2 to 3 h; absolute bioavailability ([9]; oral, printed spread (±4,6%)): about 26%; effect on mortality of mice with sepsis ([4]; 150 mg/kg endotoxin, FIG. 2): significantly reduced the mortality |
